biological target: hNav1.7 (Homo sapiens (Human), UniProt Q15858); assay: Tritiated aryl sulfonamide binding to membranes from cells expressing hNav1.7 and the β1 subunit (competitive binding); details: membranes with hNav1.7 and β1 subunit; [3H]compound displacement, 18 h, room temperature; read-out: NaV1.7 395 Memb Binding (IC50)
Procedure: Tritiated Aryl Sulfonamide Binding to Membranes Isolated from Cells that Heterologously Express hNav1.7 and the β1 Subunit
Preparation of membranes containing recombinantly expressed sodium channels: Frozen recombinant cell pellets were thawed on ice and diluted to 4 times the cell pellet weight with ice cold 50 mM Tris HCl, pH 7.4 buffer. The cell suspensions were homogenized on ice using a motorized glass dounce homogeniser. Homogenates were further diluted 8.4 times with ice cold 50 mM Tris HCl, pH 7.4 buffer and then centrifuged at 200×g at 4° C. for 15 min. The supernatants were collected and centrifuged at 10000×g at 4° C. for 50 min. The pellets were then re-suspended in 100 mM NaCl, 20 mM Tris HCl, pH 7.4 buffer containing 1% v/v protease inhibitors (Calbiochem) and re-homogenized on ice. The homogenized membranes were then processed through a syringe equipped with a 26 gauge needle. Protein concentrations were determined by Bradford Assay and the membranes were stored at −80° C.
Radioligand Binding Studies: Saturation experiments. A representative compound of formula (I) was tritiated. Three tritiums were incorporated in place of methyl hydrogens to generate [^3H]compound. Binding of this radioligand was preformed in 5 mL borosilicate glass test tubes at room temperature. Binding was initiated by adding membranes to increasing concentrations of [^3H]compound in 100 mM NaCl, 20 mM Tris HCl, pH 7.4 buffer containing 0.01% w/v bovine serum albumin (BSA) for 18 h. Non-specific binding was determined in the presence of 1 μM unlabelled compound. After 18 h, the reactants were filtered through GF/C glass fiber filters presoaked in 0.5% w/v polyethylene imine. […] [^3H]compound bound to filters was quantified by liquid scintillation counting.
Competitive binding experiments. Binding reactions were preformed in 96-well polypropylene plates at room temperature for 18 h. In 360 μL, membranes were incubated with 100 μM [^3H]compound and increasing concentrations of Test Compound. Non-specific binding was defined in the presence of 1 μM unlabelled compound. Reactions were transferred and filtered through 96-well glass fiber/C filter plates presoaked with 0.5% polyethylene imine. The filtered reactions were washed 5 times with 200 L ice cold buffer containing 0.25% BSA. Bound radioactivity was determined by liquid scintillation counting.
Data Analysis: For saturation experiments, non-specific binding was subtracted from total binding to provide specific binding and these values were recalculated in terms of pmol ligand bound per mg protein. Saturation curves were constructed and dissociation constants were calculated using the single site ligand binding model: Beq=(Bmax*X)/(X+Kd), where Beq is the amount of ligand bound at equilibrium, Bmax is the maximum receptor density, Kd is the dissociation constant for the ligand, and X is the free ligand concentration.

hNav1.7, sequence (Q15858 whole entry, looked up): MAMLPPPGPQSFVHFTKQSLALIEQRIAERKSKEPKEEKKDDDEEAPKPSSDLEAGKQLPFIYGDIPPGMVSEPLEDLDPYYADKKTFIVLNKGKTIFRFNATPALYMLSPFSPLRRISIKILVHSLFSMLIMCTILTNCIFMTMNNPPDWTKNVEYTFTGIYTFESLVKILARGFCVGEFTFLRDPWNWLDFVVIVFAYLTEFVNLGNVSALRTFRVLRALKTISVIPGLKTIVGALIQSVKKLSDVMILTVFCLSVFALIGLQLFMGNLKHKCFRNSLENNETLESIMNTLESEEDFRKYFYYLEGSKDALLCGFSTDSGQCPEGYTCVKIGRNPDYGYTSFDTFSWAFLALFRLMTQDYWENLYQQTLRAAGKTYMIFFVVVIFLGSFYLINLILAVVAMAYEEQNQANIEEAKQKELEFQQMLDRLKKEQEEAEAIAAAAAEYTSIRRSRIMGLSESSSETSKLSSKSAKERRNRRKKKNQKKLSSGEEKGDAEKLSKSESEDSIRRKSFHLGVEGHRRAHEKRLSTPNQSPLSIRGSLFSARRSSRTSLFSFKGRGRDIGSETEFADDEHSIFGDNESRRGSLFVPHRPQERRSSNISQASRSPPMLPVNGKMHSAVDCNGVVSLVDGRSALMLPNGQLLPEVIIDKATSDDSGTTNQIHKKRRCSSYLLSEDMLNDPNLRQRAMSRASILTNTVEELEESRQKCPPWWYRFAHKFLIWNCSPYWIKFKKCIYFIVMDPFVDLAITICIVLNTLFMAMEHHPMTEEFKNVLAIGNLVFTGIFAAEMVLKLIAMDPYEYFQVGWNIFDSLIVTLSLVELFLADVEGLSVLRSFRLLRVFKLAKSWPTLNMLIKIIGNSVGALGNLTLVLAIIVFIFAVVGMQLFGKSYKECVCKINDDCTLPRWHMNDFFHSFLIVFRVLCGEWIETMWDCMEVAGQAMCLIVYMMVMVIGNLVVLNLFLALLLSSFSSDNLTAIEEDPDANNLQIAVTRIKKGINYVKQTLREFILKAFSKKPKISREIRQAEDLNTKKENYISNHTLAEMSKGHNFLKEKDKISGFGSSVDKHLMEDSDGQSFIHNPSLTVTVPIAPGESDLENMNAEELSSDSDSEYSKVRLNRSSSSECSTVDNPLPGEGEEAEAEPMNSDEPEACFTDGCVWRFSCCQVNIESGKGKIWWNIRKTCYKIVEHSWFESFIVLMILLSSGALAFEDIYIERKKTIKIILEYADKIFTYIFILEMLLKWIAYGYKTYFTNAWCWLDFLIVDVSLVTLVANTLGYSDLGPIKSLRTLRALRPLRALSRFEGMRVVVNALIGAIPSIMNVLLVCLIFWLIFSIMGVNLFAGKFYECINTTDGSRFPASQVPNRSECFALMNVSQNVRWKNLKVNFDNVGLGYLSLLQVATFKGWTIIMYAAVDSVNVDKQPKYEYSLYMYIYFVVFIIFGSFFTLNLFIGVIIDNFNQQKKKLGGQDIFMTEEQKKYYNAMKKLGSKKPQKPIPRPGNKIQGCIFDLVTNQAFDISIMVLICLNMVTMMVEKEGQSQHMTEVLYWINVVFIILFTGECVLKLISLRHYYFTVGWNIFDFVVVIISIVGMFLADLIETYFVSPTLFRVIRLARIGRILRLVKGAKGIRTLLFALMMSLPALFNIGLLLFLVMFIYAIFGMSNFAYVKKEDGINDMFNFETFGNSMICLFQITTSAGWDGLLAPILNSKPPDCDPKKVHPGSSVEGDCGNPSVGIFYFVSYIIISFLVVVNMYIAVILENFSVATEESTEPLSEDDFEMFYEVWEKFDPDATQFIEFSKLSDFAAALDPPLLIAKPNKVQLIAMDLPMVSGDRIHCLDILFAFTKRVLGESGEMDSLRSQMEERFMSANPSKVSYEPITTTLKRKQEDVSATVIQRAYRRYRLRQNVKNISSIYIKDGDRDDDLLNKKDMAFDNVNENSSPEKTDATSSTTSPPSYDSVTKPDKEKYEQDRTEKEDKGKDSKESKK
hNav1.7, sequence (Q07699 whole entry partner, looked up): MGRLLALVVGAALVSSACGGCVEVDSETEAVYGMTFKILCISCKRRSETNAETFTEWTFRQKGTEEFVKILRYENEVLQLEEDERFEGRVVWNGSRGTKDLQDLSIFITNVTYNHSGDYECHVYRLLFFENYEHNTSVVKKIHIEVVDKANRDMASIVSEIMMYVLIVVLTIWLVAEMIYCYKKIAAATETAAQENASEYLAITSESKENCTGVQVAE

Compound	IC50 [nM]
CS(=O)(=O)NC(=O)c1cc(F)c(OCCC2CC2)cc1F	6860
CS(=O)(=O)NC(=O)c1cc(F)c(OCC2CCCNC2)cc1F (stereo not shown)	10000
CN(C)S(=O)(=O)NC(=O)c1cc(Cl)c(OCC2(F)CCCCC2)cc1F	1680
CS(=O)(=O)NC(=O)c1cc(Cl)c(OCC2(C(F)(F)F)CCC2)cc1F	122
CN(C)S(=O)(=O)NC(=O)c1cc(Cl)c(COc2ccc3c(c2)CC(C)(C)CC3)cc1F	106
CN(C)S(=O)(=O)NC(=O)c1ccc(OCC23CC4CC(CC(C4)C2)C3)c(C2CC2)c1	16.2
CS(=O)(=O)NC(=O)c1cc(Cl)c(COC23CC4CC(CC(C4)C2)C3)cc1F	16
CN(C)S(=O)(=O)NC(=O)c1cc(Cl)c(OCC2CCC3(CCC3)CC2)cc1F	81
CC1(C)C(COc2cc(F)c(C(=O)NS(C)(=O)=O)cc2Cl)C1(C)C	94
CS(=O)(=O)NC(=O)c1cc(Cl)c(OC[C@H]2CC[C@@H](C(F)(F)F)CC2)cc1F	86
5-chloro-4-((4,4-difluorocyclohexyl)methoxy)-2-fluoro-N-(methylsulfonyl)benzamide [Example 42]	44
5-chloro-N—(N,N-dimethylsulfamoyl)-2-fluoro-4-((4-pentylbicyclo[2.2.2]octan-1-yl)-methoxy)benzamide [Example 91]	1210
5-cyclopropyl-4-((4,4-difluorocyclohexyl)methoxy)-2-fluoro-N-((3-fluoroazetidin-1-yl)sulfonyl)benzamide [Example 212]	2300
COC(=O)C12CC3CC(C1)C(Oc1cc(F)c(C(=O)NS(C)(=O)=O)cc1Cl)C(C3)C2 (single isomer, unassigned) [Example 450]	1200
COC(=O)C12CC3CC(C1)C(Oc1cc(F)c(C(=O)NS(C)(=O)=O)cc1Cl)C(C3)C2 (single isomer, unassigned) [Example 451]	270
CNS(=O)(=O)NC(=O)c1cc(Cl)c(OC2C3CC4CC2CC(C(=O)OC)(C4)C3)cc1F (single isomer, unassigned) [Example 452]	7100
CNS(=O)(=O)NC(=O)c1cc(Cl)c(OC2C3CC4CC2CC(C(=O)OC)(C4)C3)cc1F (single isomer, unassigned) [Example 453]	950
CS(=O)(=O)NC(=O)c1cc(Cl)c(OC2C3CC4CC(C3)CC2C4)cc1F (stereo not shown) [Example 9]	40
CS(=O)(=O)NC(=O)c1cc(Cl)c(OCCC23CC4CC(CC(C4)C2)C3)cc1F [Example 11]	29
CS(=O)(=O)NC(=O)c1ccc(CNC23CC4CC(CC(C4)C2)C3)c(Cl)c1 [Example 17]	10000
CS(=O)(=O)NC(=O)c1ccc(OCC23CC4CC(CC(O)(C4)C2)C3)c(Cl)c1 [Example 24]	10000
CS(=O)(=O)NC(=O)c1cc(Cl)c(OCC2CCC3(CC2)CC3)cc1F [Example 50]	29
O=C(NS(=O)(=O)N1CCC1)c1ccc(OCC23CC4CC(CC(C4)C2)C3)c(C(F)(F)F)c1 [Example 53]	100
COc1cc(OCC23CC4CC(CC(C4)C2)C3)c(Cl)cc1C(=O)NS(C)(=O)=O [Example 56]	480
CS(=O)(=O)NC(=O)c1ccc(OCC23CC4CC(CC(C4)C2)C3)c(C(F)(F)F)c1 [Example 62]	58
CN(C)S(=O)(=O)NC(=O)c1cc(Cl)c(OCC2CCC3(CC2)CC3)cc1F [Example 88, 5-chloro-N-(dimethylsulfamoyl)-2-fluoro-4-(spiro[2.5]octan-6-ylmethoxy)benzamide]	121

Compound	IC50 [nM]
CN(C)S(=O)(=O)NC(=O)c1cc(Cl)c(OCC23CC4CC(CC(F)(C4)C2)C3)cc1F [Example 89, 5-chloro-N-(dimethylsulfamoyl)-2-fluoro-4-[(3-fluoro-1-adamantyl)methoxy]benzamide]	234
CN(C)S(=O)(=O)NC(=O)c1cc(Cl)c(OCC2CCCCCC2)cc1F [Example 100]	299
CS(=O)(=O)NC(=O)c1cc(Cl)c(OC2CCC(C(F)(F)F)CC2)cc1F (stereo not shown) [Example 128]	291
CS(=O)(=O)NC(=O)c1cc(Cl)c(OC2CCC3(CCCC3)CC2)cc1F [Example 133]	125
CN(C)S(=O)(=O)NC(=O)c1cc(Cl)c(OC2CCC(C(F)(F)F)CC2)cc1F (stereo not shown) [Example 138]	1120
CN(C)S(=O)(=O)NC(=O)c1cc(Cl)c(OCCC2CCC2)cc1F [Example 140]	885
CS(=O)(=O)NC(=O)c1cc(Cl)c(OCC2(F)C3CC4CC(C3)CC2C4)cc1F (stereo not shown) [Example 176]	50
CNS(=O)(=O)NC(=O)c1cnc(OCC23CC4CC(CC(C4)C2)C3)c(C2CC2)c1 [Example 178]	250
CS(=O)(=O)NC(=O)c1ccc(C2C3CC4CC(C3)CC2C4)c(Cl)c1 (stereo not shown) [Example 180]	1200
O=C(NS(=O)(=O)N1CC(F)C1)c1cc(C2CC2)c(OCC2CCCCC2)cc1F [Example 210]	8
O=C(NS(=O)(=O)C1CCC1)c1cc(C2CC2)c(OCC23CC4CC(CC(C4)C2)C3)cc1F [Example 211]	2
CC(O)CS(=O)(=O)NC(=O)c1ccc(OCC23CC4CC(CC(C4)C2)C3)cc1F (stereo not shown) [Example 215]	990
O=C(NS(=O)(=O)N1CCC1)c1cc(I)c(OCC23CC4CC(CC(C4)C2)C3)cc1F [Example 222]	9
O=C(NS(=O)(=O)N1CC(F)C1)c1cc(C2CC2)c(OCC2CCC(F)(F)CC2)cc1F [Example 226]	30
O=C(NS(=O)(=O)N1CC2(COC2)C1)c1cc(C2CC2)c(OCC23CC4CC(CC(C4)C2)C3)cc1F [Example 237]	67
O=C(NS(=O)(=O)C1CC1)c1cc(C2CC2)c(OCC2CCCC2)cc1F [Example 242]	20
O=C(NS(=O)(=O)C1CC1)c1cc(Cl)c(OCC2CC3CC3C2)cc1F (stereo not shown) [Example 266]	49
O=C(NS(=O)(=O)C1CC1)c1cc(Cl)c(OCC2CC3C(C2)C3(F)F)cc1F (stereo not shown) [Example 322]	81
C/C=C/c1cc(C(=O)NS(=O)(=O)N2CCC2)c(F)cc1OCC12CC3CC(CC(C3)C1)C2 [Example 399]	6
O=C(NS(=O)(=O)C1CC1)c1cc(C2CC2)c(OCC23CCCCC2C3(F)F)cc1F (stereo not shown) [Example 433, 5-cyclopropyl-N-cyclopropylsulfonyl-4-[(7,7-difluoronorcaran-1-yl)methoxy]-2-fluoro-benzamide]	4
O=C(NS(=O)(=O)N1CCC1)c1cc(C2CC2)c(OCC23CCCCC2C3(F)F)cc1F (stereo not shown) [Example 434]	11
O=C(NS(=O)(=O)C1CC1)c1cc(C2CC2)c(OC[C@H]2CC[C@H](C(F)(F)F)CC2)cc1F [Example 435, 5-cyclopropyl-N-(cyclopropylsulfonyl)-2-fluoro-4-(((1r,4r)-4-(trifluoromethyl)cyclohexyl)methoxy)benzamide]	3
O=C(NS(=O)(=O)N1CCC1)c1cc(C2CC2)c(OC[C@H]2CC[C@H](C(F)(F)F)CC2)cc1F [Example 436, N-(azetidin-1-ylsulfonyl)-5-cyclopropyl-2-fluoro-4-(((1r,4r)-4-(trifluoromethyl)cyclohexyl)methoxy)benzamide]	9
CS(=O)(=O)NC(=O)c1cc(C2CC2)c(OC2CN(C(c3ccccc3)c3ccccc3)C2)cc1F [Example 439, 4-(1-benzhydrylazetidin-3-yloxy)-5-cyclopropyl-2-fluoro-N-(methylsulfonyl)benzamide]	28
CCS(=O)(=O)NC(=O)c1cc(C2CC2)c(OCC2CN(C(c3ccccc3)c3ccccc3)C2)cc1F [Example 441, 4-((1-benzhydrylazetidin-3-yl)methoxy)-5-cyclopropyl-N-(ethylsulfonyl)-2-fluorobenzamide]	10

same assay, conditions: read-out: NaV1.7 395 Memb Binding (IC50)

Compound	IC50 [nM]
CS(=O)(=O)NC(=O)c1ccc(C(O)C2C3CC4CC(C3)CC2C4)c(Cl)c1 (stereo not shown)	1200
CS(=O)(=O)NC(=O)c1cc(F)c(OCC2CCCO2)cc1F (stereo not shown)	10000
4-((1-((4-chlorophenyl)(phenyl)methyl)azetidin-3-yl)-methoxy)-5-cyclopropyl-2-fluoro-N-(methylsulfonyl)benzamide [Example 398]	6
5-cyclopropyl-4-((4,4-difluorocyclohexyl)methoxy)-2-fluoro-N-(N-methylsulfamoyl)benzamide [Example 214]	900

— US8952169B2 (Genentech, Inc., priority 2012, dated 2015)
